Measurements as given in patent US20230405063A1, “USE OF PROBIOTIC COMPONENT AND PHARMACEUTICAL COMPOSITION CONTAINING PROBIOTIC COMPONENT” (CHENGDU KUACHANGAOPU MEDICAL TECHNOLOGY CO., LTD., priority 2020, published 2023).

Columns and labels:
Assay type in all cases: in vivo
[1] = test system: human pancreatic cancer cells (PANC-1); experiment: Tumor inhibition in PANC-1 tumor-bearing nude mice, probiotic component/gemcitabine (Example 7, Table 13); conditions: dosed once, 100 μl/mouse/time, 7th day, probiotic component = supernatant component of disrupted Saccharomyces cerevisiae
Description: The method for determining the effect of combined drug administration in animal experiments was Burgi method (Burgi Y. Pharmacology; Drug actions and reactions. […] The Burgi method was modified by Zhengjun JIN (Zhengjun JIN, Equal probability and curve and “Q50”, Journal of the Second Shanghai Medical College; 1981, 1, 75-86) with q calculated as: q=EA+B/(EA+EB-EA×EB). In the following examples of the present invention, the combinational pharmaceutical efficacies (drug efficacies) of drug A and drug B co-administration was determined by ratio q of actual pharmaceutical efficacy (drug efficacy)/theoretical pharmaceutical efficacy (drug efficacy) according to Zhengjun JIN method, as follows. […] The model animals were randomly divided into 13 groups, and the drugs were administered according to Table 13.

[2] = test system: human hepatoma cells (HepG2); experiment: Tumor inhibition in HepG2 tumor-bearing nude mice, probiotic component/lysine (Example 7, Table 12); conditions: dosed twice, interval 7 days, 7th day after final administration, probiotic component = supernatant component of disrupted Saccharomyces cerevisiae
Protocol: (§1) In the following examples of the present invention, the combinational pharmaceutical efficacies (drug efficacies) of drug A and drug B co-administration was determined by ratio q of actual pharmaceutical efficacy (drug efficacy)/theoretical pharmaceutical efficacy (drug efficacy) according to Zhengjun JIN method, as follows.
Nude mice were used as experimental subjects, and human hepatoma cells (HepG2) were used as modeling cells. […] The model animals were randomly divided into 13 groups, and the drugs were administered according to Table 12. […] Each group was dosed twice at an interval of 7 days with an injection volume of […]. On the 7th day after final administration, the animals were euthanized, and the tumor tissues were taken out after dissection to determine the tumor weight, and the tumor inhibition rate was calculated relative to the negative control group.

breast cancer 4T1 cells [3] = experiment: Extra-tumoral local administration in 4T1 tumor-bearing BALB/c mice, R7d/R21d (Example 11, Table 17); conditions: subaxillary intradermal (extra-tumoral), twice at 7-day interval, 120 μl/mouse/time; for R7 d (relative tumor proliferation rate): day 7 after last dose; for R21 d (relative tumor proliferation rate): day 21 after last dose
Protocol: (§2) V=0.5×a×b^2, wherein a and b represent the length and width of the local lesion, respectively; Volume of the local lesion (e.g. tumor):
(§3) Local lesion (e.g., tumor) proliferation rate (R)=TV/CV×100, wherein TV and CV are the local lesion volumes in the study group and negative control group, respectively;
as §1
BALB/c mice were used as experimental subjects, and breast cancer 4T1 cells were used as modeling cells. 0.25×10^5 cells/mouse were injected into the right axilla subcutaneously for transplantation tumor modeling. On the 5th day after modeling, the test animals with visually obvious tumors were randomly divided into 12 groups, having 10 animals in each group. […] In groups 1-11, on days 7 and 21 after the last dose the tumor volume (V7d, V21d) were measured, and the relative tumor proliferation rates (R7d, R21d) were calculated relative to the negative control group on days 7 and 21 after the dose, so that the short-term therapeutic effectiveness (100%−R7d) and the medium- and long-term therapeutic effectiveness (100%−R21d) could be calculated, respectively. Further, based on the short-term therapeutic effectiveness and the medium- and long-term therapeutic effectiveness, the actual/expected ratio for short-term pharmaceutical efficacies q7d and the actual/expected ratio for medium- and long-term pharmaceutical efficacies q21d were calculated respectively.

lung tumor cells (A549) = experiment: Tumor inhibition in A549 tumor-bearing nude mice, co-administration (Example 5, Table 7); conditions: dosed once, 7th day, probiotic component = heat-inactivated Saccharomyces boulardii
Description: (§4) The method for determining the effect of combined drug administration in animal experiments was Burgi method (Burgi Y. Pharmacology; Drug actions and reactions. Cancerres. 1978, 38(2), 284-285). The Burgi method was modified by Zhengjun JIN (Zhengjun JIN, Equal probability and curve and “Q50”, Journal of the Second Shanghai Medical College; 1981, 1, 75-86) with q calculated as: q=EA+B/(EA+EB−EA×EB). In the following examples of the present invention, the combinational pharmaceutical efficacies (drug efficacies) of drug A and drug B co-administration was determined by ratio q of actual pharmaceutical efficacy (drug efficacy)/theoretical pharmaceutical efficacy (drug efficacy) according to Zhengjun JIN method, as follows.
Nude mice were used as experimental subjects, and lung tumor cells (A549) were used as modeling cells, 1×10^5 cells/mouse were injected into the right axilla subcutaneously for transplantation tumor modeling, and the average tumor volume of successfully modeled nude mice was 153.7 mm^3. The model animals were randomly divided into 18 groups, and the drugs were administered according to the drug components and administration route in Table 7. Each group was dosed once with an injection volume of […]. Wherein, the probiotic component was heat-inactivated Saccharomyces boulardii, and the administration route of group 16 was intra-tumoral injection of probiotic component followed by intra-tumoral injection of 10% arginine about 2 hours later. On the 7th day after drug administration, the animals were euthanized, and after dissection, the tumor tissue was taken out to determine the tumor weight, and the tumor inhibition rate (r) was calculated relative to the negative control group. Further, the actual efficacy/expected efficacy ratio q of a drug could also be calculated according to the therapeutic effect (tumor inhibition rate).

[4] = test system: human liver cancer HepG2 cells; experiment: Tumor inhibition in HepG2 tumor-bearing nude mice (Example 2, Table 4); conditions: dosed once, 150 μl/mouse; for Tumor weight (x ± s): 7th day after administration; for Tumor inhibition rate r: 7th day, relative to negative control
Protocol: The tumor-bearing nude mice were widely used for drug studies on chemotherapy rather than immunotherapy in patients with solid tumors. Taking nude mice as experimental subjects, human liver cancer HepG2 cells were used as modeling cells, and 1×10^5 cells/mouse were injected into the right axilla subcutaneously for transplantation tumor modeling, and the average tumor volume of successfully modeled nude mice was 161.3 mm^3. The model animals were randomly divided into 17 groups. The drugs were administered according to the drug and dosing method in Table 4. Each group was dosed once with an injection volume of 150 μl/mouse. On the 7th day after drug administration, the animals were euthanized, and after dissection, the tumor tissue was taken out to determine the tumor weight, and the tumor inhibition rate (r) was calculated relative to the negative control group.

breast cancer 4T1 cells [5] = experiment: Short-term tumor inhibition in 4T1 tumor-bearing BALB/c mice (Example 9, Table 14); conditions: dosed twice, 7th day after final administration
Description: as §4
BALB/c mice were used as experimental subjects, and breast cancer 4T1 cells were used as modeling cells. 0.5×10^6 cells/mouse were injected into the right axilla subcutaneously for transplantation tumor modeling, and the average tumor volume of successfully modeled nude mice was 160.1 mm^3. The model animals were randomly divided into 21 groups, and the drugs were administered by intravenous injection (series A) and intratumoral injection (series B) according to the drugs and doses in Table 14, respectively. All the drugs administered were aqueous liquids, which were formulated according to the method of Example 1. Each group was dosed twice. On the 7th day after final administration, the animals were euthanized, and the tumor tissues were taken out after dissection to determine the tumor weight, and the tumor inhibition rates rA and rB were calculated relative to the corresponding negative control groups in series A and series B.

breast cancer 4T1 cells [6] = experiment: Short- and medium/long-term relative tumor proliferation rate in 4T1 tumor-bearing BALB/c mice (Example 10, Table 16); conditions: intratumoral injection, dosed twice at interval of 7 days, 100 μl/mouse/time
Description: as §2, §3, §4
BALB/c mice were used as experimental subjects, and breast cancer 4T1 cells were used as modeling cells. 0.5×10^6 cells/mouse were injected into the right axilla subcutaneously for transplantation tumor modeling, and the average tumor volume of successfully modeled nude mice was 107.4 mm^3. The model animals were randomly divided into 17 groups.
The drugs, formulated according to the method of Example 1, were administered according to Table 16. Each group was dosed twice with an interval of 7 days, and the injection volumes were 300 μl/mouse/time for groups 13 and 14, 100 μl/mouse/time for other groups. The drugs were administered by subaxillary administration of the right forelimb for group 15, and by intratumoral injection for other groups. Group 16 was administered sequentially (the first dose was aprobiotic semi-fluid-like component/cytotoxic drug/weak local acting compound, and the last dose was inactivated probiotics), while the other groups were administered with the same drug twice. On days 7 and 21 after the last dose, the tumor volumes of each group were measured (V7d, V21d), and the relative tumor proliferation rates (R7d, R21d) were calculated relative to the negative control group, respectively, so that the short-term therapeutic effectiveness (100%−R7d) and the medium- and long-term therapeutic effectiveness (100%−R21d) could be calculated, respectively.

[7] = listed as 20% lysine, 20% lysine
[8] = intratumoral injection, '+' = arginine injected about 2 hours later

Nc1ccn([C@@H]2O[C@H](CO)[C@@H](O)C2(F)F)c(=O)n1 [5% gemcitabine, gemcitabine]
Tumor inhibition rate [1]: 35.1%
Tumor weight (x ± s) [1]: 0.191 ± 0.077 g
Tumor inhibition rate ([1]; listed as 0.05% gemcitabine): 5.6%
Tumor inhibition rate ([1]; listed as 0.1% gemcitabine): 7.8%
Tumor inhibition rate ([1]; listed as […] gemcitabine): 30.4%
Tumor weight (x ± s) ([1]; listed as […] gemcitabine): 0.204 ± 0.103 g

NCCCC[C@H](N)C(=O)O [25% lysine, lysine]
Tumor inhibition rate [2]: 54.1%
Tumor weight (x ± s) [2]: 0.109 ± 0.074 g
Tumor inhibition rate ([2]; 5% lysine): 11.3%
Tumor weight (x ± s) ([2]; 5% lysine): 0.211 ± 0.091 g
Tumor inhibition rate ([2]; listed as 1% lysine, 1% lysine): 5.2%
Tumor weight (x ± s) ([2]; listed as 1% lysine, 1% lysine): 0.226 ± 0.112 g
Tumor inhibition rate [2, 7]: 43.6%
Tumor weight (x ± s) [2, 7]: 0.134 ± 0.073 g
R7 d (relative tumor proliferation rate) (breast cancer 4T1 cells [3]): 96%
R21 d (relative tumor proliferation rate) (breast cancer 4T1 cells [3]): 102%

N=C(N)NCCC[C@H](N)C(=O)O [10% arginine, arginine]
Tumor inhibition rate r (lung tumor cells (A549); [8]): 24.7%
Tumor weight (x ± s) (lung tumor cells (A549); [8]): 0.164 ± 0.061 g
Tumor inhibition rate r (lung tumor cells (A549); intravenous injection): 6.4%
Tumor weight (x ± s) (lung tumor cells (A549); intravenous injection): 0.196 ± 0.077 g

B1: interleukin-12 (protein, UniProt P29459 23-219; P29460 23-328, looked up)
Interleukin-12 subunit alpha: RNLPVATPDPGMFPCLHHSQNLLRAVSNMLQKARQTLEFYPCTSEEIDHEDITKDKTSTVEACLPLELTKNESCLNSRETSFITNGSCLASRKTSFMMALCLSSIYEDLKMYQVEFKTMNAKLLMDPKRQIFLDQNMLAVIDELMQALNFNSETVPQKSSLEEPDFYKTKIKLCILLHAFRIRAVTIDRVMSYLNAS
Interleukin-12 subunit beta: IWELKKDVYVVELDWYPDAPGEMVVLTCDTPEEDGITWTLDQSSEVLGSGKTLTIQVKEFGDAGQYTCHKGGEVLSHSLLLLHKKEDGIWSTDILKDQKEPKNKTFLRCEAKNYSGRFTCWWLTTISTDLTFSVKSSRGSSDPQGVTCGAATLSAERVRGDNKEYEYSVECQEDSACPAAEESLPIEVMVDAVHKLKYENYTSSFFIRDIIKPDPPKNLQLKPLKNSRQVEVSWEYPDTWSTPHSYFSLTFCVQVQGKSKREKKDRVFTDKTSATVICRKNASISVRAQDRYYSSSWSEWASVPCS
notes: immunoenhancement control
Tumor weight (x ± s) ([4]; intratumoral injection): 0.241 ± 0.111 g
Tumor inhibition rate r ([4]; intratumoral injection): 8.1%
Tumor weight (x ± s) ([4]; intravenous injection): 0.230 ± 0.102 g
Tumor inhibition rate r ([4]; intravenous injection): 4.7%
tumor inhibition rate rA (breast cancer 4T1 cells [5]; series A: intravenous injection): 5.3%
tumor inhibition rate rB (breast cancer 4T1 cells [5]; series B: intratumoral injection): 4.6%
relative tumor proliferation rate R7 d (breast cancer 4T1 cells [6]; day 7 after last dose): 95%
relative tumor proliferation rate R21 d (breast cancer 4T1 cells [6]; day 21 after last dose): 96%
R7 d (relative tumor proliferation rate) (breast cancer 4T1 cells [3]): 99%
R21 d (relative tumor proliferation rate) (breast cancer 4T1 cells [3]): 97%
